Laboratory results reported in ChEMBL document CHEMBL1201862, “PubChem BioAssay data set” (2004).
The source made the active and inactive calls.

How the values were obtained:
CAAX prenyl protease 2 [1] = target: T1, CAAX prenyl protease 2 (Saccharomyces cerevisiae S288c, UniProt Q03530); assay type: biochemical
T1 sequence (Q03530 whole entry): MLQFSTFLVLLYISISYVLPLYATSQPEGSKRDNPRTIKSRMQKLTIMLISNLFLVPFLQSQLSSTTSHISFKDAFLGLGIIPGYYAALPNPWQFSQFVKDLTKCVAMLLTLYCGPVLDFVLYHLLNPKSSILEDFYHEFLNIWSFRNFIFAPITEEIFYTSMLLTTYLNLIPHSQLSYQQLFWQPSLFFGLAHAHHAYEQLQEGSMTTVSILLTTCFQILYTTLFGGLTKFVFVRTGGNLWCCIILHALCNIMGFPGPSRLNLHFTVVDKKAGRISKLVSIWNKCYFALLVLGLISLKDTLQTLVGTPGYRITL

Trypsin = Trypsin (Sus scrofa, UniProt P00761); assay: porcine trypsin inhibitors, dose response, selectivity assay for Rce1 protease inhibitor project, biochemical, quenched peptide fluorescence, cherry-pick (AID 488789)
CAAX prenyl protease 2 [2] = target: T2, CAAX prenyl protease 2 (Homo sapiens, UniProt Q9Y256); assay: human Rce1 protease inhibitors, dose response, biochemical, yeast membranes, quenched-peptide fluorescence, cherry-pick (AID 588849)
T2 sequence (Q9Y256 whole entry): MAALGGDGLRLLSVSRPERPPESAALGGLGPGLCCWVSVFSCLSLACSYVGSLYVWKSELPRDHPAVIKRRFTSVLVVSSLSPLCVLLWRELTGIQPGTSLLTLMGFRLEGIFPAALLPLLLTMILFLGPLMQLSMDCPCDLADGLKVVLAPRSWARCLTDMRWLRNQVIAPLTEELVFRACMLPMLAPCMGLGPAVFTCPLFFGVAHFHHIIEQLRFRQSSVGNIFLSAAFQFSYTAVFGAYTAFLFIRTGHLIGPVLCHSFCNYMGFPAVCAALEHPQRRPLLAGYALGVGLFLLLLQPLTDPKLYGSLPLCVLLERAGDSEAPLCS

HeLa = assay: HeLa cell cytotoxicity, dose response, cytotoxicity control for MITF activator project, CellTiter-Glo luminescence, cherry-pick samples (AID 540259); assay type: functional, cell-based; details: Homo sapiens
[3] = microbe, parasite or virus in culture; assay type: functional; details: Mycobacterium tuberculosis
Estrogen receptor beta [4] = target: T3, Estrogen receptor beta (Homo sapiens, UniProt Q92731); assay: ERβ–SRC-3 coactivator interaction inhibitors, confirmation, orthogonal assay, biochemical, ELISA, streptavidin-HRP readout (AID 1060)
Estrogen receptor beta [5] = target: T3, Estrogen receptor beta
Estrogen receptor = target: T4, Estrogen receptor (Homo sapiens, UniProt P03372);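 further: potency for inhibiting coactivator peptide recruitment to the receptor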
T4 sequence (P03372 whole entry): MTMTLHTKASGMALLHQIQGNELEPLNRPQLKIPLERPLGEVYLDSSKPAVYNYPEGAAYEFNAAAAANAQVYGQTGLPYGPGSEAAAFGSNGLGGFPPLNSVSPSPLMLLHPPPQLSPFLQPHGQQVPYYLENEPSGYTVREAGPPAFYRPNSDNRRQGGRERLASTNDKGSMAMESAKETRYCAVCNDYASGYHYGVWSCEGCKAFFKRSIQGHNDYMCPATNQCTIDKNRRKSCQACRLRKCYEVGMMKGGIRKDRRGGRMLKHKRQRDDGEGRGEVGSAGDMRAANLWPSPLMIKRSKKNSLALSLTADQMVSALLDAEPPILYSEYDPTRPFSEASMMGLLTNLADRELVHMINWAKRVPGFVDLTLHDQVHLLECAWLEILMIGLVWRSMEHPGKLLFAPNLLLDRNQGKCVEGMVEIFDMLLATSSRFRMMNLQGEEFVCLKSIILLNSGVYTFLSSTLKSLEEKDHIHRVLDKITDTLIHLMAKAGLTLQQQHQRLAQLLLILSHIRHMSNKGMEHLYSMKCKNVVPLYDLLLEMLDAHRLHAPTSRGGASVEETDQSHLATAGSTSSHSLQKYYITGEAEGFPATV

[6] = target: T5, Apoptotic protease-activating factor 1 (Homo sapiens, UniProt O14727); assay type: functional
T5 sequence (O14727 whole entry): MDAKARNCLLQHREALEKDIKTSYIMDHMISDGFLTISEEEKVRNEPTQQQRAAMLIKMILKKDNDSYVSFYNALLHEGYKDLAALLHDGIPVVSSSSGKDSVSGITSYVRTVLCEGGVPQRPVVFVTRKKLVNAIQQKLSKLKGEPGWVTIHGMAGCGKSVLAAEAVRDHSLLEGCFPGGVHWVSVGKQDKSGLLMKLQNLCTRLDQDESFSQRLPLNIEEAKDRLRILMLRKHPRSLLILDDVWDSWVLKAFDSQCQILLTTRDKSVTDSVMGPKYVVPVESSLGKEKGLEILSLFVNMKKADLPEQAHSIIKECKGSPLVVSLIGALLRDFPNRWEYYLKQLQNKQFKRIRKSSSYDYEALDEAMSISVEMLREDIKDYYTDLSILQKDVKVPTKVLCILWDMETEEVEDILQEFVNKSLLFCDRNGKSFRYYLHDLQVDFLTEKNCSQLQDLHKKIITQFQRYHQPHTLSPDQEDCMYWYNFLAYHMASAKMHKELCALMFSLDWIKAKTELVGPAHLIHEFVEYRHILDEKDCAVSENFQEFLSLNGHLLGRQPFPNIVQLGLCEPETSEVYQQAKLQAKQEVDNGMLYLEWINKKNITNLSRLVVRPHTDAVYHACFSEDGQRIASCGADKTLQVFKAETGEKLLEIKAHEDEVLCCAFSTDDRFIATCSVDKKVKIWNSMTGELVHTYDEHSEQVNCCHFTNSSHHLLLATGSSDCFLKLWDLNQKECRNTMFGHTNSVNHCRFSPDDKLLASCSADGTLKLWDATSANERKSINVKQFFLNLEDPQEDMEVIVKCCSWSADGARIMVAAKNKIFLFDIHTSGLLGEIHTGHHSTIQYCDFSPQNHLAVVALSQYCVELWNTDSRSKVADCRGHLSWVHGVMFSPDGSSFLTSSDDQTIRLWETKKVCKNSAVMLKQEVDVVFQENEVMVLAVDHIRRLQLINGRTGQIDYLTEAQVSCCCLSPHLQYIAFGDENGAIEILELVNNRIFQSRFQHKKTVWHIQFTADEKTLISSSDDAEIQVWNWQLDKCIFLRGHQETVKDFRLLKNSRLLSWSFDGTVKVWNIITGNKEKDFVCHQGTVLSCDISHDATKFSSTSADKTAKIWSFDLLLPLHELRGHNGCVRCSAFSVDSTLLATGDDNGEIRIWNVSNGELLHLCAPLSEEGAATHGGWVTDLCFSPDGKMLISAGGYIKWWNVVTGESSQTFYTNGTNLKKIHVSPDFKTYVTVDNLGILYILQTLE

T3 sequence (Q92731 whole entry): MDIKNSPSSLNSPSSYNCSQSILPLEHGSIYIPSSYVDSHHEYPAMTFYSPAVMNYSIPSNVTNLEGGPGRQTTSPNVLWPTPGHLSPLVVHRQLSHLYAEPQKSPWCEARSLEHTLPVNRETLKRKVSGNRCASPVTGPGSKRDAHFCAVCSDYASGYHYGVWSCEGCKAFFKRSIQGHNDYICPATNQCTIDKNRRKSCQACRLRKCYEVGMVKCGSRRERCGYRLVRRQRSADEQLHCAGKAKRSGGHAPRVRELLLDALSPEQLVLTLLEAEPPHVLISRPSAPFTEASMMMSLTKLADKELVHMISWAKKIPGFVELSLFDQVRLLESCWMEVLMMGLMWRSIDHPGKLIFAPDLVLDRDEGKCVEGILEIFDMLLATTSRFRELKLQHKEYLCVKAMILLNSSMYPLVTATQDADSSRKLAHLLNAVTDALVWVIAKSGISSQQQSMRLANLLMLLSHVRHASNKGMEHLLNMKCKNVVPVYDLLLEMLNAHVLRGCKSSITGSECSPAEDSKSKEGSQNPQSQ
Trypsin, sequence (P00761 whole entry): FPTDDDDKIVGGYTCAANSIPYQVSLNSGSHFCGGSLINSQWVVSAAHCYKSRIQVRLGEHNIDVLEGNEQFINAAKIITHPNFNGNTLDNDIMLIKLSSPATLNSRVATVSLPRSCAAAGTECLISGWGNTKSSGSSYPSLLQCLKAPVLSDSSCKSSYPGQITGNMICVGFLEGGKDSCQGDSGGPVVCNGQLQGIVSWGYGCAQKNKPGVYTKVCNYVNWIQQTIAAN

## CC(C)C(=O)Nc1c2c(nc3ccccc13)N(C)CC2
CAAX prenyl protease 2 [1]
  AC50: 36.2 µM (active)
Trypsin
  AC50: 12.8 µM (active)
CAAX prenyl protease 2 [2]
  AC50: 24 µM (active)

## CC(C)c1ccc2nc(N)sc2c1
HeLa
  AC50: 54.4 µM (active)
[3]
  CC50: > 40 µM (active)

## Cc1snc2sc(C(=O)c3ccc(Br)cc3)c(N)c12
HeLa
  AC50: 67.4 µM (active)
Estrogen receptor beta [4]
  IC50: 0.0857 µM (not active)
Estrogen receptor beta [5]
  IC50: > 50 µM (not active)
Estrogen receptor
  IC50: 28.2 µM (active)

## COc1ccc(-n2nc(C(=O)NCC(=O)NC3CCCC(C)C3C)c3ccccc3c2=O)c(OC)c1 (stereo not given)
[6]
  IC50: 14.5 µM (active)
